What all share (assay type): functional
The test system of test [1] is Hair follicle. Nature of the test: Upregulation of SHH mRNA expression in human hair follicle assessed as fold change at 0.5 uM measured for 48 hrs by qRT-PCR analysis. On the technique in general: In qPCR the cycle at which signal appears reflects the starting amount.
Test [2] concerns Hair follicle. Nature of the test: Upregulation of PTCH mRNA expression in human hair follicle assessed as fold change at 0.5 uM measured for 48 hrs by qRT-PCR analysis.
Test [3] deals with Hair follicle. Nature of the test: Upregulation of Smo mRNA expression in human hair follicle assessed as fold change at 0.5 uM measured for 48 hrs by qRT-PCR analysis.
Test [4] concerns Hair follicle. The test is described as follows: Upregulation of Gli mRNA expression in human hair follicle assessed as fold change at 0.5 uM measured for 48 hrs by qRT-PCR analysis.
The test system of test [5] is Hair follicle. Nature of the test: Upregulation of RBPJ mRNA expression in human hair follicle assessed as fold change at 5 ug/ml. The settings on record: dose 5 µg/ml.

The values that follow come from ChEMBL document CHEMBL6153017, “Progress on the mechanism of natural products alleviating androgenetic alopecia” (2024).

In the case of `O=C(O[C@@H]1Cc2c(O)cc(O)cc2O[C@@H]1c1cc(O)c(O)c(O)c1)c1cc(O)c(O)c(O)c1` [EPIGALOCATECHIN GALLATE], the “fold change (FC)” value came to 4.48 in test [1]; 4.18 in test [2]; 4.71 in test [3]; 1.67 in test [4]; 7 in test [5].
